The results in this text go back to patent US20060063784A1, “Method of using substituted pyrazolo [1,5-a] pyrimidines” (priority 2004, published 2006).

One assay concerns 80S14 (p21-deficient) cells. In words: Cytotoxicity assay using isogenic cell lines: IC50 in 80S14 (p21-deficient) cells, SRB. Conditions: 80S14 p21-deficient cells, 5 days incubation, SRB; read-out: IC50 for 80SI4. The class given is cell-based, human. The protocol: Cytotoxicity Assay Using Isogenic Cell Lines: • 1. 80S14 (p21-deficient) cells were cultured in RPMI 1640 medium (Gibco/Invitrogen Life technologies) supplemented with 10% fetal bovine serum (FBS, Gibco) and 10 μg/ml gentamycin (Gibco). Cells were maintained at 37° C. under 7% CO2 • 2. Cells were plated at 6×10^4/ml (0.2 ml/well; 12,000 cells/well) in 96-well microtiter plates (Falcon or Corning/Costar) and incubated at 37° C. overnight (18-24 hours). • 3. 2-5 μl of the test agent [200 μg/ml stock in 20% DMSO/20 mM HEPES, pH 7.5 (Gibco)] was added to each well to achieve a final concentration of 2-5 μg/ml. Cells were incubated with the test compounds for 5 days at 37° C. • 4. Surviving cells were fixed with 50 μl 50% trichloroacetic acid (Sigma; 10% final concentration) for 1 hour at 4° C. • 5. Plates were rinsed twice with water (0.3 ml per wash using MRD8 robot), and allowed to dry. • 6. Sulforhodamine B (SRB) (Sigma; 0.4% in 1% acetic acid, 50 μl per well; MRD8 robot) was added and plates kept at room temperature for 10 minutes. • 7. Excess dye was removed by washing with 1% acetic acid (3 times, 0.3 ml per wash; MRD8 robot) and allowed to dry. • 8. The dye was solubilized in Tris base (Sigma; 10 mM, 150 μl per well). Plates were kept at room temperature for 30 minutes to allow the dye to diffuse. • 9. Absorbance was measured at 540 nm. • 10. The percentage of cells surviving drug treatment relative to control wells (no drug) was determined. • 11. The difference in % cell survival between the two cell lines was calculated. • 12. Compounds producing a difference score of >50 were considered to be selective for the p21-deficient cells and were evaluated further: Determination of selectivity of compounds for p21−/− cells: • 1. 80S14 cells were cultured as described above. • 2. Cells were seeded in 96-well microtiter plates at 12,000 cells/well (either 0.15 ml/well of 8×10^4 cells/ml suspension, or 0.2 ml/well of 6×10^4 cells/ml suspension). Plates were incubated at 37° C. overnight (18-24 hours). • 3. Serial dilutions of the test agent were added to each well. Dilutions were prepared either in 40% DMSO/20% methanol/20 mM HEPES, pH 7.5 (Gibco) or directly in growth medium. One of two dose ranges were used: 5 pM to 50 μM or 170 pg/ml to 10 μg/ml. Cells were incubated with the test compounds for 5 days at 37° C. • 4. Surviving cells were fixed with 50 μl 50% trichloroacetic acid (Sigma; 10% final concentration) for 1 hour at 4° C. • 5. Plates were rinsed extensively in water, and allowed to dry. • 6. Sulforhodamine B (Sigma; 0.4% in 1% acetic acid, 70 μl per well) was added and plates kept at room temperature for 10 minutes. • 7. Excess dye was removed by washing 5 times with 1% acetic acid and plates were allowed to dry. • 8. The dye was solubilized in Tris base (Sigma; 10 mM, 150 μl per well). Plates were placed on a titer plate shaker (Lab Line Instruments) for 5 minutes to allow the dye to diffuse. • 9. Absorbance was measured at 560 nm.
10. The drug concentration that inhibits cell proliferation by 50% relative to untreated controls (IC50) was determined from cytotoxicity curves.
In the case of `CC(=O)OCC(=O)Nc1cccc(-c2ccnc3c(C(=O)c4cccs4)cnn23)c1` [Example 62, 2-oxo-2-({3-[3-(thien-2-ylcarbonyl)pyrazolo[1.5-a]pyrimidin-7-yl]phenyl]amino)ethyl acetate], the IC50 (as a rule, the point on the concentration scale where inhibition reaches its midpoint) was 1 to 10 µM.
On the same count and under the same terms, the value for `CN(C)CC(=O)Nc1cccc(-c2ccnc3c(C(=O)c4cccs4)cnn23)c1` [Example 64, N-2-N-2-dimethyl-N-1-{3-[3-(thien-2-ylcarbonyl)pyrazolo[1,5-a]pyrimidin-7-yl]phenyl}glycinamide] was 1 to 10 µM; that for `CCN(CC)CCC(=O)Nc1cccc(-c2ccnc3c(C(=O)c4cccs4)cnn23)c1` [Example 65, N-3,N-3-diethyl-N-1-{3-[3-(thien-2-ylcarbonyl)pyrazolo[1,5-a]pyrimidin-7-yl]phenyl}-beta-alaninamide] was 10 to 50 µM.
Turning to `O=C(Cc1cccs1)Nc1cccc(-c2ccnc3c(C(=O)c4cccs4)cnn23)c1` [Example 66], the IC50 is under 1 µM.
Same read-out and setting: the result for `NCC(=O)Nc1cccc(-c2ccnc3c(C(=O)c4cccs4)cnn23)c1` [Example 77, N-1-{3-[3-(thien-2-ylcarbonyl)pyrazolo[1,5-a]pyrimidin-7-yl]phenyl}gylcinamide] reads 10 to 50 µM; that for `C[C@H](N)C(=O)Nc1cccc(-c2ccnc3c(C(=O)c4cccs4)cnn23)c1` [Example 78, N-1-{3-[3-(thien-2-ylcarbonyl)pyrazolo[1,5-a]pyrimidin-7-yl]phenyl}-L-alaninamide], 1 to 10 µM.
For the compound `CC(C)C[C@H](N)C(=O)Nc1cccc(-c2ccnc3c(C(=O)c4cccs4)cnn23)c1` [Example 79, N-1-{3-[3-(thien-2-ylcarbonyl)pyrazolo[1,5-a]pyrimidin-7-yl]phenyl}-L-leucinamide], the IC50 was 10 to 50 µM.
For the compound `CC(C)C[C@H](N)C(=O)Nc1cccc(-c2ccnc3c(C(=O)c4cccs4)cnn23)c1` [Example 80, N-1-{3-[3-(thien-2-ylcarbonyl)pyrazolo[1,5-a]pyrimidin-7-yl]phenyl}-L-leucinamide], the IC50 fell in the range of 1 to 10 µM.
Turning to `N[C@@H](CC1CCCCC1)C(=O)Nc1cccc(-c2ccnc3c(C(=O)c4cccs4)cnn23)c1` [Example 82, 3-cyclohexyl-N-1-[3-[3-(thien-2-ylcarbonyl)pyrazolo[1,5-a]pyrimidin-7-yl]phenyl}-L-alaninamide], the IC50 lay in the range of 10 to 50 µM.
On the same count and under the same terms, the result for `CC(C)[C@H](N)C(=O)Nc1cccc(-c2ccnc3c(C(=O)c4cccs4)cnn23)c1` [Example 83, N-1-{3-[3-(thien-2-ylcarbonyl)pyrazolo[1,5-a]pyrimidin-7-yl]phenyl}-L-valinamide] reads 1 to 10 µM; that for `O=C(c1cccs1)c1cnn2c(-c3cccc(NC(=O)[C@@H]4CCCN4)c3)ccnc12` [Example 85], 1 to 10 µM.
Still for that read-out and setting: the value for `N[C@H](C(=O)Nc1cccc(-c2ccnc3c(C(=O)c4cccs4)cnn23)c1)C1CCCCC1` [Example 86] was 1 to 10 µM.
Still for that read-out and setting: the value for `O=C(Nc1cccc(-c2ccnc3c(C(=O)c4cccs4)cnn23)c1)c1ccc(Cl)cc1` [Example 89] was 1 to 10 µM.

Still in this assay, the particulars now being: Homo sapiens, 120 h; 80S14 p21-deficient cells, 5 days incubation, SRB; read-out: IC50 for 80SI4.
With `C=CCCC(=O)Nc1cccc(-c2ccnc3c(C(=O)c4cccs4)cnn23)c1` [Example 57, N-{3-[3-(thien-2-ylcarbonyl)pyrazolo[1,5-a]pyrimidin-7-yl]phenyl}pent-4-enamide], the IC50 was under 1 µM.
The same measure, in the same setting: the result for `CC(CC(=O)Nc1cccc(-c2ccnc3c(C(=O)c4cccs4)cnn23)c1)C(F)(F)F` (centres unmarked) [Example 59, 4,4,4-trifluoro-3-methyl-N-{3-[3-(thien-2-ylcarbonyl)pyrazolo[1,5-a]pyrimidin-7-yl]phenyl}butanamide] reads under 1 µM; that for `N#CCC(=O)Nc1cccc(-c2ccnc3c(C(=O)c4cccs4)cnn23)c1` [Example 60, 2-cyano-N-{3-[3-(thien-2-ylcarbonyl)pyrazolo[1,5-a]pyrimidin-7-yl]phenyl]acetamide], under 1 µM; that for `COCC(=O)Nc1cccc(-c2ccnc3c(C(=O)c4cccs4)cnn23)c1` [Example 61, 2-methoxy-N-{3-[3-(thien-2-ylcarbonyl)pyrazolo[1,5-a]pyrimidin-7-yl]phenyl]acetamide], 1 to 10 µM.
For `COCCOCC(=O)Nc1cccc(-c2ccnc3c(C(=O)c4cccs4)cnn23)c1` [Example 63, 2-(2-methoxyethoxy)-N-{3-[3-(thien-2-ylcarbonyl)pyrazolo[1,5-a]pyrimidin-7-yl]phenyl}acetamide], the IC50 fell in the range of 1 to 10 µM.
Still for that read-out and setting: the result for `O=C(CC1Cc2ccccc2C1)Nc1cccc(-c2ccnc3c(C(=O)c4cccs4)cnn23)c1` [Example 67, 2-(2,3-dihydro-1H-inden-2-yl)-N-{3-[3-(thien-2-ylcarbonyl)pyrazolo[1,5-a]pyrimidin-7-yl]phenyl}acetamide] reads under 1 µM; that for `Cc1ccccc1CC(=O)Nc1cccc(-c2ccnc3c(C(=O)c4cccs4)cnn23)c1` [Example 68, 2-(2-methylphenyl)-N-{3-[3-(thien-2-ylcarbonyl)pyrazolo[1,5-a]pyrimidin-7-yl]phenyl}acetamide], under 1 µM; that for `O=C(Cc1ccc2c(c1)OCO2)Nc1cccc(-c2ccnc3c(C(=O)c4cccs4)cnn23)c1` [Example 69, 2-(1,3-benzodioxol-5-yl)-N-{3-[3-(thien-2-ylcarbonyl)pyrazolo[1,5-a]pyrimidin-7-yl]phenyl}acetamide], under 1 µM.
The same measure, in the same setting: the value for `O=C(Nc1cccc(-c2ccnc3c(C(=O)c4cccs4)cnn23)c1)c1cnc2ccccc2c1` [Example 70, N-{3-[3-(thien-2-ylcarbonyl)pyrazolo[1,5-a]pyrimidin-7-yl]phenyl}quinoline-3-carboxamide] was 1 to 10 µM; that for `O=C(/C=C/c1ccccc1)Nc1cccc(-c2ccnc3c(C(=O)c4cccs4)cnn23)c1` [Example 71, (2E)-3-phenyl-N-{3-[3-(thien-2-ylcarbonyl)pyrazolo[1,5-a]pyrimidin-7-yl]phenyl}prop-2-enamide] was 1 to 10 µM; that for `O=C(CC1CCCC1)Nc1cccc(-c2ccnc3c(C(=O)c4cccs4)cnn23)c1` [Example 73, 2-cyclopentyl-N-{3-[3-(thien-2-ylcarbonyl)pyrazolo[1,5-a]pyrimidin-7-yl]phenyl}acetamide] was under 1 µM.
Consider `N[C@@H](Cc1ccccc1)C(=O)Nc1cccc(-c2ccnc3c(C(=O)c4cccs4)cnn23)c1` [Example 81, N-{3-[3-(thien-2-ylcarbonyl)pyrazolo[1,5-a]pyrimidin-7-yl]phenyl}-L-phenylalaninamide], for which the IC50 was 10 to 50 µM.
As for `NCCCC(=O)Nc1cccc(-c2ccnc3c(C(=O)c4cccs4)cnn23)c1` [Example 84, 4-amino-N-{3-[3-(thien-2-ylcarbonyl)pyrazolo[1,5-a]pyrimidin-7-yl]phenyl}butanamide], the IC50 lay within 10 to 50 µM.
For `Cc1ccc(C(=O)Nc2cccc(-c3ccnc4c(C(=O)c5cccs5)cnn34)c2)cc1` [Example 87, 4-methyl-N-{3-[3-(thien-2-ylcarbonyl)pyrazolo[1,5-a]pyrimidin-7-yl]phenyl]benzamide], the IC50 is under 1 µM.
On the same count and under the same terms, the value for `COc1ccc(C(=O)Nc2cccc(-c3ccnc4c(C(=O)c5cccs5)cnn34)c2)cc1` [Example 88, 4-methoxy-N-{3-[3-(thien-2-ylcarbonyl)pyrazolo[1,5-a]pyrimidin-7-yl]phenyl]benzamide] was under 1 µM; that for `O=C(Nc1cccc(-c2ccnc3c(C(=O)c4cccs4)cnn23)c1)c1ccc(Br)cc1` [Example 90, 4-bromo-N-{3-[3-(thien-2-ylcarbonyl)pyrazolo[1,5-a]pyrimidin-7-yl]phenyl}benzamide] was 1 to 10 µM.
